Test results as given in PubChem BioAssay AID652169 (The Scripps Research Institute Molecular Screening Center, 2013).
The source made the active and inactive calls. No rule for the calls is given here.

system: MTT cytotoxicity, absorbance 620 nm; experiment: cytotoxicity by MTT viability readout, late-stage follow-up, cytotoxicity control for NOD2-RIPK2 interaction inhibitor project, cell-based, absorbance (AID 652169)

| SMILES | IC50 |
| --- | --- |
| O=[N+]([O-])c1cc(S(=O)(=O)N2CCCCCC2)ccc1F | > 10 µM (inactive) |
| Cc1ccc(S(=O)(=O)N2CCCCCC2)cc1[N+](=O)[O-] | > 10 µM (inactive) |
| Cc1ncc([N+](=O)[O-])n1Cc1ccc(Cl)c(Cl)c1 | > 10 µM (inactive) |
| COc1ccc(C(C[N+](=O)[O-])n2nc(C)cc2C)cc1 (stereo unspecified) | > 10 µM (inactive) |
| O=[N+]([O-])c1cccc(S(=O)(=O)N2CCCCCC2)c1 | > 10 µM (inactive) |
| Cc1nc([N+](=O)[O-])c(Br)n1Cc1ccc(Cl)c(Cl)c1 | > 10 µM (inactive) |
| Cc1ccc(C(C[N+](=O)[O-])n2nc(C)cc2C)cc1 (stereo unspecified) | > 10 µM (inactive) |
| O=S(=O)(c1ccccc1)N1CCCCCC1 | > 10 µM (inactive) |
| Cc1cc(S(=O)(=O)N2CCCCCC2)ccc1F | > 10 µM (inactive) |
| Cc1nc([N+](=O)[O-])c(Br)n1Cc1ccccc1 | > 10 µM (inactive) |
| O=S(=O)(c1ccc(F)cc1)N1CCCCCC1 | > 10 µM (inactive) |
